Measurements taken from patent publication US20250281465A1, “MOLECULES THAT ENHANCE EXTRACELLULAR VESICLE RELEASE” (priority 2022, published 2025).
“Also recorded” adds a separate entry of the source.

Assays:
[1] = tested on: 4T1 breast cancer; assay: Murine lung metastasis models (4T1 breast cancer); format: in vivo, mouse
From the text: Recent advances in cancer immunotherapy have improved patient survival. However, only a minority patients with pulmonary metastatic disease responds to treatment with checkpoint inhibitors. As an alternate approach, we have tested the ability of systemically administered 1V270, a toll-like receptor 7 (TLR7) agonist conjugated to a phospholipid, to inhibit lung metastases in two variant murine 4T1 breast cancer models, as well as in B16 melanoma, and Lewis lung c models.

[2] = tested on: mBMDCs; assay: Costimulatory molecule expression on mBMDCs (flow cytometry); format: cell-based, mouse; settings: 634 10 μM, ION 1 μM, MPLA 1 μg/mL overnight, vs Veh
Method: FIGS. 26A-26D. Flow cytometric analysis for costimulatory molecules on mBMDCs. For costimulatory molecules on mBMDCs, mBMDCs (10^6 cells/mL) were incubated with 634 (10 μM), ION (1 μM), and MPLA (1 μg/mL) for 20-24 hours. 0.5% DMSO was used as a vehicle. After removing the supernatant, cells were washed with the stain buffer and incubated with anti-mouse CD16/32 antibody for blocking FcR. Cells were stained with an antibody cocktail with anti-CD86 (A), anti-CD80 (B), anti-MHC class II (C), and anti-CD40 (D) antibodies for 30 minutes at 4° C. Cells were then washed and stained with DAPI (4′,6-diamino-2phenylindole) for 10 minutes at room temperature to exclude dead cells (DAPI^high) from the analysis. Data were acquired using MACSQuant Analyzer 10 (Miltenyi Biotec, Germany) and analyzed with FlowJo (version 10.8.1).
mBMDCs (10^5 cells/200 μL/well) were treated with a test compound (10 μM) or Veh (0.5% DMSO) overnight and then the costimulatory molecule expression on mBMDCs was evaluated using flow cytometry. The cells were stained with antibodies for CD11c, CD80, CD83, CD86, CD40, and MHC class II. Dead cells (DAPI high) were excluded from the analysis. Percent positive population of CD80, CD83, CD86, CD40, or MHC class II in the gated CD11c population were analyzed.
Costimulatory Molecule Expression Analysis. mBMDCs (10^6 cells/mL) were incubated with 10 μM compound, 1 μM lonomycin and 1 μg/mL MPLA for 20 to 24 hours. 0.5% DMSO was used as vehicle. Cells were incubated with anti-mouse CD16/32 antibody for blocking FcR and stained with anti-CD11c, anti-CD40, […], anti-CD83, […], or anti-MHC class II antibodies for 30 minutes at 4° C. Cells were stained with 4′,6-diamino-2-phenylindole (DAPI) for 10 minutes at RT. Data were acquired using MACSQuant Analyzer 10 (Miltenyi Biotec, Germany) and analyzed with FlowJo (version 10.8.1, Becton Dickinson, Ashland, OR)).

[3] = tested on: mBMDCs; assay: IL-12 induction in mBMDCs (ELISA); format: cell-based, mouse; settings: 10 μM / dose response
Method: (§1) All these analogs were evaluated for induction of IL-12 cytokine at 10 μM, followed by dose response IL-12 induction for selected analogs. These analogs were also evaluated for exosome release by quantitating EV release in the supernatant post 48 hours incubation with CD63-Tluc-CD9-EmGFP THP-1 reporter cells.
mBMDCs (10^5 cells/200 μL/well) were plated in wells of 96-well plates and treated with test compound (5 μM or 10 μM) or vehicle (0.5% DMSO) overnight.

[4] = tested on: CD63-Tluc-CD9-EmGFP THP-1 reporter cells; assay: CD63 Tluc-CD9 EmGFP THP-1 reporter cell assay (EV/exosome release); format: cell-based, human; settings: 48 hours incubation
Method: as §1
In the HTS using CD63-Tluc-CD9EmGFP reporter cells (CD63 HTS), PMA (10 ng/ml) was used as a positive control (Shpigelman et al., 2021) and 0.5% DMSO was used as negative control (vehicle, Veh). Briefly, the harvested cells were resuspended in assay media containing 10% exosome-depleted […] (#A2720801, Thermo Fisher Scientific) and plated at 2×10^5 cells/mL (50 μL/well of 384-well plates) (#3674, Corning). Test compounds were added at a final concentration of 10 μM to cells and incubated for 48 hours at 37° C. Subsequently, the plate was centrifuged, supernatant (25 μL) was transferred, and chemiluminescent was measured as recombinant luciferase activity (RLU) after 10 minutes incubation with TurboLuc assay reagent (TurboLuc™ One-Step Glow Assay kit, Thermo Fisher Scientific). The response that measures activation and subsequent release of EVs was calculated using the following formula; % response=100×(compound RLU−average Veh RLU)/(average PMA RLU−average Veh RLU). The viability of cells was assessed using PrestoBlue reagent (Thermo Fisher Scientific). Briefly, PrestoBlue reagent (2.5 μl) was added to the remaining cells and incubated for 30 minutes at room temperature, followed by fluorescence readout at (Ex 560 nm/Em 590 nm) which was normalized to fluorescence data of the Veh wells within the plate to obtain “% viability” calculated as 100×(compound fluorescence/average Veh fluorescence).
CD63 Tluc-CD9 EmGFP THP-1 reporter cell assay. CD63 Tluc CD9 EmGFP THP-1 reporter cell (designated as CD63 Tluc reporter cells) were incubated with 10 μM test compounds, ION (1 μM), or 0.5% DMSO (negative control) in the RPMI 1640 supplemented with exosome-depleted FBS at 5×10^4 cells in 200 μL/well for a 96-well plate for 48 hours at 37° C. Subsequently, the plate was centrifuged, the supernatant was transferred, and chemiluminescence was measured by TurboLuc™ Luciferase One-Step Glow Assay Kit. The response that measures activation and subsequent release of EVs was calculated using the following formula; % response=100×(compound RLU−average Veh RLU)/(average PMA RLU−average Veh RLU).

CCCCCCCC/C=C\CCCCCCCC(=O)OCC(COP(=O)(O)OCCNC(=O)c1ccc(Cn2c(=O)[nH]c3c(N)nc(OCCOC)nc32)cc1)OC(=O)CCCCCCC/C=C\CCCCCCCC (stereo not drawn) [1V270]
lung metastases / tumor cell colonization in the lungs ([1]; 4T1 breast cancer models, systemic administration): inhibited lung metastases; also recorded: inhibited colonization by tumor cells in the lungs | toxic effects ([1]; compared to the unconjugated agonist): minimal toxic effects | lung metastasis after intranasal administration ([1]; intranasal administration): suppressed lung metastasis

C[C@H](CCC(=O)O)C[C@H](C)C[C@H](C)C(=O)/C=C(\O)[C@H](C)C[C@H](C)C/C=C/[C@@H](C)[C@@H](O)[C@@H](C)[C@@H](O)C[C@@H]1CC[C@@](C)([C@H]2CC[C@@](C)([C@@H](C)O)O2)O1 [ION, ionomycin, reference compound]
CD80 expression on mBMDCs [2]: increased CD86 and CD80 expression on mBMDCs | CD86 expression on mBMDCs [2]: increased CD86 and CD80 expression on mBMDCs

Cc1ccccc1-c1cncc(-c2nnc(-c3cccc4ccccc34)o2)c1 [2C183]
IL-12 induction [3]: induced IL-12 in BMDCs | exosome (EV) release in CD63 reporter THP-1 cells [4]: enhanced exosome release in CD63 reporter THP-1 cells

Cc1cccc(-c2cncc(-c3nnc(-c4cccc5ccccc45)o3)c2)c1 [2C185]
IL-12 induction [3]: enhance exosome release and IL-12 induction; also recorded: induced IL-12 in BMDCs | exosome (EV) release in CD63 reporter THP-1 cells [4]: enhance exosome release; also recorded: enhanced exosome release in CD63 reporter THP-1 cells
